For assay [1], the target named is T1, LTA4-h (Homo sapiens, UniProt P09960).
T1 sequence (P09960 1-611): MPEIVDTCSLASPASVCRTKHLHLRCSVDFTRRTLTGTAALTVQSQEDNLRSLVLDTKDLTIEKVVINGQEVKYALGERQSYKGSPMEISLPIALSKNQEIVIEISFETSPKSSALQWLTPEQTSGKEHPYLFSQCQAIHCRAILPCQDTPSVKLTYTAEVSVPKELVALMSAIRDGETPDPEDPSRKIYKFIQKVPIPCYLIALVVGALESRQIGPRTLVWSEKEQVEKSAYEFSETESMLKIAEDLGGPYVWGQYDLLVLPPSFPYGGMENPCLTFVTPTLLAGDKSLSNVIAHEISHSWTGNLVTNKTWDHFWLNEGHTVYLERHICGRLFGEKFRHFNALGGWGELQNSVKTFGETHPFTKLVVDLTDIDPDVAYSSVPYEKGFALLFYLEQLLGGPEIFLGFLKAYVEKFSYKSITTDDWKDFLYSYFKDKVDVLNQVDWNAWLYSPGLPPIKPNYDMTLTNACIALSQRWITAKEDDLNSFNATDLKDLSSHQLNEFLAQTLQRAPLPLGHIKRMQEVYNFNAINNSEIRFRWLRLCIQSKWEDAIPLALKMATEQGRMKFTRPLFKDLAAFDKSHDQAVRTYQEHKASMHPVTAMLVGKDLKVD
As to the kind of experiment: peptidase (aminopeptidase) assay. The format is biochemical. From the text: Since LTA4-h hydrolase is grouped with the M1 family of zinc metalloproteases (see, Rudberg, P. C. et al., J. Biol. Chem. 2002, Vol. 277, page 1398-1404), the compounds of the invention can be tested in the standard hydrolase and peptidase assay to determine the compounds' kinetic constants for binding to LTA4-h hydrolase and for inhibiting LTB4 synthesis (see Askonas, L. J., et al., The Journal of Pharmacology and Experimental Therapeutics 2002, 300(2): 577-582; Penning, T. D., J. Med. Chem. 2000, 43(4): 721-735; Kull, F. et al., The Journal of Biological Chemistry 1999, 274 (49): 34683-34690, the contents of which are expressly incorporated by reference herein).
The whole blood and aminopeptidase assays were performed as described in Penning et al., J. Med. Chem. 2000, 43, 721-735, and Rudberg et al., J. Biol. Chem. Vol. 279, No. 26, Issue of June 25, pp. 27376-27382, 2004, the contents of each of which are expressly incorporated by reference herein. The hydrolase assay was performed as described in U.S. Pat. No. 7,737,145, the contents of which are expressly incorporated herein.

Assay [2] deals with T2, LTA4-h hydrolase (Homo sapiens, UniProt P09960).
T2 construct: from tissue; host or cells: whole blood
T2 sequence (P09960 1-611): T1 sequence (P09960 1-611)
The assay can be described thus: whole blood assay (WBA). It counts as cell-based. From the text: Compounds of the invention can also be tested for their ability as inhibitors of LTA4-h hydrolase in the whole blood assay using human, mouse, rat or dog whole blood (see Penning, T. D. et al., J. Med. Chem. (2000), 43(4): 721-735 for a description of a human whole blood assay and a mouse whole blood assay, the contents of which are expressly incorporated herein).
(§1) Tables 4 to 6 below show the IC50 values for peptidase, hydrolase and whole blood assay (WBA) activity for exemplary compounds encompassed by the invention. The whole blood and aminopeptidase assays were performed as described in Penning et al., J. Med. Chem. 2000, 43, 721-735, and Rudberg et al., J. Biol. Chem. Vol. 279, No. 26, Issue of June 25, pp. 27376-27382, 2004, the contents of each of which are expressly incorporated by reference herein. The hydrolase assay was performed as described in U.S. Pat. No. 7,737,145, the contents of which are expressly incorporated herein.

Assay [3] addresses T1, LTA4-h. The assay can be described thus: hydrolase assay (hydrolase-homogeneous time resolved fluorescence). The format is biochemical.
Description: The compounds of the invention can be tested for their ability to inhibit LTA4-h by various known assays and by assays described herein. For example, the compounds can be tested for their ability to inhibit LTA4-h activity by assaying the compounds in the hydrolase-homogeneous time resolved fluoroescence assay. This assay, which is a two-step assay, measures the hydrolysis of […] to LTB4 by analyzing the amount of LTB4 produced. The first step involves the enzymatic conversion of […] to LTB4 and the second step involves the quantification of the […] with a homogeneous time resolved fluoroescence assay.
as §1

The mark [4] stands for this setting: prefix 'r' not defined, read-out: IC50 WBA, second value given with prefix 'r'.

SMILES strings stand for the structures. Where two headings read alike, the source gives them in different places. Bounds are passed on as bounds.

As for `CN(Cc1ccc(Oc2ccc(Cl)cc2)cc1)Cc1ccc(N2CCCC(C(=O)O)C2)nc1` (stereo not shown) [Compound 27], the results for the IC50 in assay [1], in assay [2] (read-out: IC50 WBA) and in assay [3] were 48 nM, 510 nM and 320 nM, respectively.

As to `O=C(O)C1CCCN(c2ccc(CNCCc3ccc(Oc4nc5ccccc5s4)cc3)cc2)C1` (stereo not shown) [Compound 17], the IC50 in assay [1] was 54 nM; in assay [3] it was 5 nM.

In turn, `O=C(O)C1CCCN(c2ccc(CNCc3ccc(Oc4ccc(Cl)cc4)cc3)cc2F)C1` (stereo not shown) [Compound 19] registered an IC50 in assay [1] of 45 nM.

As to `O=C(O)CCNc1ccc(CNCc2ccc(Oc3ccc(Cl)cc3)cc2)cn1` [Compound 21], the IC50 in assay [1] came out at 2 nM.

Consider `CCOC(=O)c1ccc(Oc2ncccc2CNCc2ccc(Oc3ccc(-c4ncco4)cc3)cc2)cc1` [Compound 9], for which, in assay [1], 1 µM produced 45% inhibition.

For `O=C(O)C1CCCN(c2ccc(CNCc3ccc(Oc4nc5ccccc5s4)cc3)cn2)C1` (stereo not shown) [Compound 30], the IC50 turned out to be 5 nM in assay [1], 120 nM in assay [2] (read-out: IC50 WBA) and 1 nM in assay [3].

As for `CC(C)=CCOc1ccc(CNCc2ccc(N3CCCC(C(=O)O)C3)nc2)cc1` (stereo not shown) [Compound 32], the IC50 in assay [1] amounted to 10 nM; in assay [3], 37 nM.

As to `CN(Cc1ccc(Oc2ccc(Cl)cc2)cc1)Cc1ccc(Oc2ccc(C(=O)O)cc2)nc1` [Compound 4], the results for the IC50 in assay [1] and in assay [2] (read-out: IC50 WBA) were 300 nM and 2100 nM, respectively. Moreover, the inhibition at 1 µM in assay [3] (at 1 uM) was found to be 47%.

Take `CN(Cc1ccc(C(=O)O)cc1)c1ccc(CNCc2ccc(Oc3ccc(Cl)cc3)cc2)cn1` [Compound 1]: the IC50 in assay [1] was 490 nM; in assay [2] (read-out: IC50 WBA), 210 nM; in assay [3], 280 nM.

With `O=C(O)C1CCCN(c2ccc(CNCc3ccc(Oc4ccc5c(c4)OCO5)cc3)cn2)C1` (stereo not shown) [Compound 33], the IC50 in assay [1] and in assay [3] was 8 nM throughout.

As to `C=CCOc1ccc(CNCc2ccc(N3CCCC(C(=O)O)C3)nc2)cc1` (stereo not shown) [Compound 28], the IC50 came to 73 nM in assay [1], 1000 nM in assay [2] (read-out: IC50 WBA) and 260 nM in assay [3].

For `O=C(O)C1CCCN(c2ccc(CNCc3ccc(Oc4nc5ccccc5s4)cc3)cn2)C1` (stereo not shown) [Compound 29], the IC50 in assay [1] was 4 nM; in assay [2] (read-out: IC50 WBA) it was 160 nM.

For the molecule `O=C(O)c1ccc(Oc2ncccc2CNCc2ccc(Oc3ccc(-c4ncco4)cc3)cc2)cc1` [Compound 10], the IC50 in assay [1] came out at 39 nM; in assay [2] (read-out: IC50 WBA), 1900 nM; in assay [3], 23 nM.

In assay [1], `CN(CC(=O)O)c1ccc(CNCc2ccc(Oc3ccc(Cl)cc3)cc2)cn1` [Compound 20] registered an IC50 of 10 nM.

As to `O=C(O)C1CCN(c2ccc(CNCc3ccc(Oc4ccc(Cl)cc4)cc3)cn2)CC1` [Compound 2], the IC50 amounted to 68 nM in assay [1], 360 nM in assay [2] (setting [4]), 730 nM in assay [2] (read-out: IC50 WBA) and 69 nM in assay [3].

As for `CCOC(=O)c1ccc(Oc2ncccc2CN(C)Cc2ccc(Oc3ccc(Cl)cc3)cc2)cc1` [Compound 7], 1 µM produced 11% inhibition in assay [1].

As to `CN(Cc1ccc(Oc2ccc(Cl)cc2)cc1)Cc1cccnc1Oc1ccc(C(=O)O)cc1` [Compound 8], the IC50 in assay [1] came out at 78 nM; in assay [2] (read-out: IC50 WBA), 290 nM; in assay [3] it was 50 nM.

Consider `CN(Cc1ccc(Oc2ccc(Cl)cc2)cc1)Cc1ccc(N2CCCC(C(=O)O)C2)nc1` (stereo not shown) [Compound 24], for which the IC50 amounted to 28 nM in assay [1] and 150 nM in assay [3].

For `O=C(O)C1CCCN(c2ccc(CNCc3ccc(OC/C=C/c4ccccc4)cc3)cn2)C1` (stereo not shown) [Compound 31], the values for the IC50 in assay [1], in assay [2] (read-out: IC50 WBA) and in assay [3] were 42 nM, 230 nM and 9 nM, respectively.

In the case of `CN(Cc1ccc(Oc2ccc(Cl)cc2)cc1)Cc1ccc(N2CCC(C(=O)O)CC2)nc1` [Compound 5], the IC50 was determined as 45 nM in assay [1], 570 nM in assay [2] (read-out: IC50 WBA) and 43 nM in assay [3].

As to `COCCN(Cc1ccc(Oc2ccc(Cl)cc2)cc1)Cc1ccccc1Oc1cccc(C(=O)O)c1` [Compound 15], the IC50 was 470 nM in assay [1] and 1950 nM in assay [2] (read-out: IC50 WBA). Moreover, in assay [3], testing at 3 µM gave an inhibition of 18%.

`O=C(O)C1CCCN(c2ccc(CNCc3ccc(Oc4cnc5ccccc5n4)cc3)cn2)C1` (stereo not shown) [Compound 36]: the results for the IC50 in assay [1] and in assay [3] were 7 nM and 19 nM, respectively.

As for `CN(Cc1ccc(Oc2ccc(-c3ncco3)cc2)cc1)Cc1cccnc1Oc1ccc(C(=O)O)cc1` [Compound 12], the IC50 was found to be 12 nM in assay [1], 360 nM in assay [2] (read-out: IC50 WBA) and 33 nM in assay [3].

Turning to `O=C(O)C1CCCN(c2ccc(CNCc3ccc(Oc4ccc(-c5ncco5)cc4)cc3)cn2)C1` (stereo not shown) [Compound 25], the IC50 was 13 nM in assay [1], 55 nM in assay [2] (read-out: IC50 WBA) and 3 nM in assay [3].

On to `CCOC(=O)c1ccc(Oc2ncccc2CN(C)Cc2ccc(Oc3ccc(-c4ncco4)cc3)cc2)cc1` [Compound 11], for which the inhibition at 1 µM in assay [1] was 17%.

`O=C(O)[C@H]1CCCN(c2ccc(CNCc3ccc(Oc4cnc5ccccc5n4)cc3)cn2)C1` [Compound 37]: the IC50 in assay [1] worked out at 12 nM.

In assay [1], `CCOC(=O)c1ccc(Oc2ncccc2CNCc2ccc(Oc3ccc(Cl)cc3)cc2)cc1` [Compound 6] registered an inhibition at 1 µM of 18%.

As to `O=C(O)c1ccc(CNc2ccc(Oc3ccc(Cl)cc3)cc2)cc1` [Compound 42], the IC50 is 850 nM in assay [1] and above 3000 nM in assay [2] (read-out: IC50 WBA). Testing at 3 µM in assay [3] gave an inhibition of 0%.

Turning to `O=C(O)c1cccc(Oc2ncccc2CNCc2ccc(Oc3ccc(-c4ncco4)cc3)cc2)c1` [Compound 13], the 50% inhibitory concentration (IC50) came to 75 nM in assay [1], 2300 nM in assay [2] (read-out: IC50 WBA) and 1400 nM in assay [3].

Consider `O=C(O)C1CCCN(c2ccc(CNCCc3ccc(Oc4ncccn4)cc3)cc2)C1` (stereo not shown) [Compound 18], for which the IC50 turned out to be 16 nM in assay [1] and 68 nM in assay [3].

In the case of `O=C(O)c1ccc(Oc2ncccc2CNCc2ccc(Oc3ccc(Cl)cc3)cc2)cc1` [Compound 3], the IC50 came to 21 nM in assay [1], 420 nM in assay [2] (setting [4]), 800 nM in assay [2] (read-out: IC50 WBA) and 100 nM in assay [3].

`O=C(O)[C@@H]1CCCN(c2ccc(CNCc3ccc(Oc4cnc5ccccc5n4)cc3)cn2)C1` [Compound 38] gave an IC50 in assay [1] of 16 nM.

On to `CN(Cc1ccc(Oc2ccc(-c3ncco3)cc2)cc1)Cc1ccc(N2CCCC(C(=O)O)C2)nc1` (stereo not shown) [Compound 26], for which the IC50 is 33 nM in assay [1], 180 nM in assay [2] (read-out: IC50 WBA) and 85 nM in assay [3].

`O=C(O)C1CCCN(c2ccc(CNCc3ccc(Oc4ccc(CCO)cc4)cc3)cn2)C1` (stereo not shown) [Compound 40]: the IC50 in assay [1] was determined as 21 nM.

In the case of `COc1cc(C(=O)O)ccc1Oc1ncccc1CNCc1ccc(Oc2ccc(-c3ncco3)cc2)cc1` [Compound 14], the IC50 in assay [1] amounted to 61 nM; in assay [2] (read-out: IC50 WBA), 1500 nM; in assay [3], 350 nM.

As for `O=C(O)C1CCCN(c2ccc(CNCc3ccc(OCc4ccc(Cl)cc4)cc3)cn2)C1` (stereo not shown) [Compound 35], the IC50 in assay [1] was 45 nM; in assay [3], 110 nM.

For the molecule `O=C(O)C1CCCN(c2ccc(CNCc3ccc(Oc4ncccn4)cc3)cn2)C1` (stereo not shown) [Compound 34], the IC50 in assay [1] came to 13 nM; in assay [3], 86 nM.

Consider `O=C(O)C1CCCN(c2ccc(CNCc3ccc(Oc4ccc5cc(Cl)ccc5n4)cc3)cn2)C1` (stereo not shown) [Compound 39], for which, in assay [1], the IC50 came to 170 nM.

Values taken from patent publication US9822106B2, “Inhibitors of leukotriene A4 hydrolase” (Celtaxsys, Inc., priority 2013, dated 2017).
